Results reported in patent US7772190B2, “Didepsipeptide-based endoparasiticides, new didepsipeptides and process for preparing the same” (Bayer Animal Health GmbH, priority 1995, dated 2010).

Tests used:
[1] = tested on: Trichostrongylus colubriformis; assay: In vivo nematode test Trichostrongylus colubriformis/sheep; conditions: experimentally infected sheep; orally and/or intravenously as pure active compound; complete cessation of oviposition (worm eggs in faeces) after treatment
Experimental: Trichostrongylus colubriformis/Sheep
Sheep experimentally infected with Trichostrongylus colubriformis were treated after expiry of the prepatency time of the parasite. The active compounds were administered orally and/or intravenously as pure active compound.
(§1) The degree of effectiveness is determined by quantitatively counting the worm eggs excreted with the faeces before and after treatment.
(§2) Complete cessation of oviposition after treatment means that the worms have been expelled or are so damaged that they no longer produce eggs (effective dose).
Active compounds tested and effective doses can be seen from the following table.

Haemonchus contortus = assay: In vivo nematode test Haemonchus contortus/sheep; conditions: experimentally infected sheep; orally and/or intravenously as pure active compound; complete cessation of oviposition (worm eggs in faeces) after treatment
Experimental: Haemonchus contortus/Sheep
Sheep experimentally infected with Haemonchus contortus were treated after expiry of the prepatency time of the parasite. The active compounds were administered orally and/or intravenously as pure active compound.
as §1, §2
Active compounds tested and effective doses can be seen from the following tables.

Row | Compound | Effective dose [1] [mg/kg] | Effective dose (Haemonchus contortus) [mg/kg]
1 | COC(=O)C(C)OC(=O)C(C)N(C)C(=O)N(C)C(=O)N(C)C [Example 2, Methyl N-methyl-N-trimethylallophanoyl-L-alanyl-D-lactate] | 5 | 5
2 | COC(=O)C1CCCCN1C(=O)C(C)OC(=O)C(C)N(C)C(=O)N(C)C(=O)N(C)C [Example 8, N-methyl-N-trimethylallophanoyl-L-alanyl-D-lactyl-L-homoproline Methyl Ester] | – | 5
